# Results: PMC9176691, “Design, synthesis and biological evaluation of novel diosgenin–benzoic acid mustard hybrids with potential anti-proliferative activities in human hepatoma HepG2 cells” (Journal of Enzyme Inhibition and Medicinal Chemistry, 2022)
# Read-outs that look alike come from different tables or passages of the source.
# Assays:
# [1] = test system: CDK2, CDK4, CDK6, cyclin D1 and cyclin E1; type: cell-based, human
# caspase 3 = test: Caspase 3 activity in cell lysates; type: cell-based, human; details: HepG2 cell lysates, 48 h
# Protocol: (§1) The activities of caspase 9 and caspase 3 in the cell lysates were evaluated as described previously. The harvested HepG2 cells treated with varying concentrations of 14f for 48 h were lysed using chilled 100 µL lysis buffer, to extract the total protein. The protein concentration was assessed using a Bradford Kit. The protein samples were incubated with assay buffer and colorimetric substrate (Ac-DEVD-pNA or Ac-LEHD-pNA) at room temperature for 2 h, according to the manufacturer’s protocol. The released pNAs were measured at the wavelength of 405 nm using a Multiskan® Spectrum system. The experiments were performed in triplicate.
# MCF-7 cells = test: MTT anti-proliferative assay, MCF-7; type: cell-based, human; details: for IC50: Homo sapiens, read-out: IC50 MCF-7
# GES-1 cells = test: MTT cytotoxicity assay, normal GES-1; type: cell-based, human; details: for IC50: Homo sapiens, read-out: IC50 GES-1
# HepG2 cells [2] = test: MTT anti-proliferative assay, HepG2; type: cell-based, human; details: for IC50: read-out: IC50 HepG2
# HepG2 cells [3] = test: Mitochondrial membrane potential (JC-1, flow cytometry); type: cell-based, human; details: 48 h (lower quadrant value)
# Protocol: HepG2 cells were plated into 6-well plates for 12 h. Following treatment with varying concentrations of 14f for 48 h, the cells were incubated with JC-1 dyeing working solution for 0.5 h at room temperature, then washed with staining buffer 3 times and re-suspended in 300 µL of staining buffer. The cells were finally assessed and analysed using a flow cytometer (FACSCalibur™).
# [4] = test system: Bax, Bcl-2, caspase 9, and caspase 3; type: cell-based, human
# HepG2 cells [5] = test: Flow cytometric analysis of cell cycle distribution (PI); type: cell-based, human; details: 24 h
# Protocol: HepG2 cells were seeded into 6-well plates and allowed to grow for a period of 12 h. After incubation with different concentrations of 14f (0, 5, 10, and 20 µM) for 24 h, the cells were trypsinized, washed with phosphate-buffered saline (PBS), and fixed in 1.5 ml of 75% ethanol for the night, at 4 °C, following which RNase and propidium iodide (PI) (Multi Sciences Biotech Co. Ltd.) were added to the cells. The cell cycle distribution and data processing were analysed using a flow cytometer (FACSCalibur™, BD Biosciences, USA).
# HepG2 cells [6] = test: Apoptosis by flow cytometry (Annexin V-FITC/PI); type: cell-based, human; details: 48 h
# Protocol: Briefly, HepG2 cells were incubated in 6-well plates for 24 h, and then treated with 14f (0, 5, 10, and 20 µM) for 48 h. Following that, the cells were washed once with pre-cold PBS, re-suspended in 300 µL of buffer solution, and stained with 10 µL of Annexin V-FITC and 5 µL of PI staining solution, under the conditions of 37 °C and absence of any light source, for 10 min. Finally, the samples were immediately measured using a flow cytometer. The percentages of apoptotic cells were determined on the CellQuest™ software (BD Biosciences).
# caspase 9 = test: Caspase 9 activity in cell lysates; type: cell-based, human; details: HepG2 cell lysates, 48 h
# Protocol: as §1
# Bax and Bcl-2 = test: Western blot of Bax and Bcl-2; type: cell-based, human; details: HepG2 cells, 48 h
# Protocol: (§2) To analyse the effect of compound 14f on protein levels, western blot assay was employed, as elaborated previously. The proteins were acquired by collecting HepG2 cells treated with varying concentrations of 14f for 48 h and adding them to lysis buffer, in an ice bath for 30 min. After quantitation of protein concentration using BCA assay, equal amounts of total protein were separated using 10% sodium dodecyl sulphate-polyacrylamide gel electrophoresis and then transferred onto polyvinylidene fluoride membranes. The membranes were incubated with 5% bovine serum albumin solution for 1.5 h at 37 °C, followed by incubation with primary antibody overnight, and finally secondary antibody for 2 h at 37 °C. The blots were detected using enhanced chemiluminescence reagent with a fully automatic gel imaging system (ChemiDoc™ MP, Bio-Rad). The relative expression was calculated by normalising the expression of the control group to 1 for comparison.
# HeLa cells = test: MTT anti-proliferative assay, HeLa; type: cell-based; details: Homo sapiens, read-out: IC50 HeLa
# HepG2 cells [7] = test: Hoechst 33342/PI staining, cell morphology; type: cell-based, human; details: HepG2, 5, 10 and 20 μM, 48 h
# Protocol: First, HepG2 cells were plated into 6-well plates, at a density of 1 × 10^6 cells/well. Thereafter, 14f (0, 5, 10, and 20 µM) was added to the cells and they were incubated with it for 48 h; 0.1% DMSO was used as a vehicle control. The cellular morphology was then observed and photographed using a light microscope (Olympus, 1 × 51, Japan). Next, HepG2 cells were incubated with 14f (0, 5, 10, and 20 µM) for 48 h, after which the cells were collected and stained with a mixture of Hoechst 33342 and PI in buffer solution, for 20 min at room temperature. Finally, the cell samples were studied and photographed under a fluorescence microscope (Obeserve.A1, Zeiss, Germany).
# [8] = test system: CDK2, CDK4, CDK6, cyclin D1, and cyclin E1; test: Western blot of G0/G1 phase-related proteins; type: cell-based, human; details: HepG2 cells, 48 h
# Protocol: as §2
# [9] = MTT, 48 h treatment, average ± SD of three independent experiments
smiles,measurement,setting,value
"CC(=O)OC1CCC2(C)C(=CCC3C2CCC2(C)C3CC3OC(CCC(C)C(=O)N4CCCN(C(=O)c5ccc(N(CCCl)CCCl)cc5)CC4)C(C)C32)C1 [Compound 14f, (22 R,25R)-(4–(1-homopiperazinyl)-4-(bis(2-chloroethyl)amino)benzamido)-3β-acetoxy-5-en-furostan-26-amide]","genes levels of CDK2, CDK4, CDK6, cyclin D1 and cyclin E1",[1],decreased
same,enzyme activity of caspase 3,caspase 3,upregulated
same,fold more active than DSG,MCF-7 cells,about 1.7 fold
same,IC50,"MCF-7 cells; MCF7, 48 h",11.1 ± 1.01 µM
same,SI,GES-1 cells,>44.25
same,IC50,"GES-1 cells; GES1, 48 h",> 100 µM
same,potency fold higher than that of Mitomycin C,HepG2 cells [2],14.4 fold
same,IC50,"HepG2 cells [2]; Homo sapiens, HepG2, 48 h",2.26 ± 0.87 µM
same,percentage of mitochondrial depolarisation,"HepG2 cells [3]; HepG2, JC-1, 14f 5 µM",7.90%
same,percentage of mitochondrial depolarisation,"HepG2 cells [3]; HepG2, JC-1, 14f 10 µM",15.55%
same,percentage of mitochondrial depolarisation,"HepG2 cells [3]; HepG2, JC-1, 14f 20 µM",40.46%
same,"gene expression of Bax, caspase 9, and caspase 3",[4],high gene expression
same,gene expression of Bcl-2,[4],suppressed
same,effect on the cell cycle,"HepG2 cells [5]; HepG2, 5, 10 and 20 µM",arrested the cell cycle at the G0/G1 phase
same,cells in G0/G1 phase,"HepG2 cells [5]; HepG2, 14f 5 μM",33.76%
same,cells in G0/G1 phase,"HepG2 cells [5]; HepG2, 14f 10 μM",40.38%
same,cells in G0/G1 phase,"HepG2 cells [5]; HepG2, 14f 20 μM",46.40%
same,apoptotic cells,"HepG2 cells [6]; HepG2, 14f 5 μM",9.80%
same,apoptotic cells,"HepG2 cells [6]; HepG2, 14f 10 μM",14.38%
same,apoptotic cells,"HepG2 cells [6]; HepG2, 14f 20 μM",28.13%
same,enzyme activity of caspase 9,caspase 9,upregulated
same,protein levels of Bax,Bax and Bcl-2,upregulated
same,protein levels of Bcl-2,Bax and Bcl-2,downregulation
same,IC50,HeLa cells; 48 h,41.6 ± 3.12 µM
same,apoptosis seen by Hoechst 33342/PI staining,HepG2 cells [7],increase in the apoptosis of HepG2 cells
same,"expression levels of CDK2, CDK4, CDK6, cyclin D1, and cyclin E1 proteins",[8],concentration-dependently downregulate
"CC(CCC1OC2CC3C4CC=C5CC(O)CCC5(C)C4CCC3(C)C2C1C)C(=O)N1CCCN(C(=O)c2ccc(N(CCCl)CCCl)cc2)CC1 [Compound 15f, (22 R,25R)-(4–(1-homopiperazinyl)-4-(bis(2-chloroethyl)amino)benzamido)-3β-hydroxy-5-en-furostan-26-amide]",IC50,"MCF-7 cells; MCF7, 48 h",> 100 µM
same,SI,GES-1 cells,>5.28
same,IC50,"GES-1 cells; GES1, 48 h",> 100 µM
same,IC50,"HepG2 cells [2]; Homo sapiens, HepG2, 48 h",18.9 ± 0.93 µM
same,IC50,HeLa cells; 48 h,> 50 µM
C[C@@H]1CC[C@@]2(OC1)O[C@H]1C[C@H]3[C@@H]4CC=C5C[C@@H](O)CC[C@]5(C)[C@H]4CC[C@]3(C)[C@H]1[C@@H]2C [Diosgenin],IC50,"MCF-7 cells; MCF7, MTT, 48 h treatment, average ± SD of three independent experiments",23.9 ± 1.34 µM
same,IC50,"GES-1 cells; GES1, MTT, 48 h treatment, normal gastric epithelial cells, average ± SD of three independent experiments",> 100 µM
same,SI,GES-1 cells; SI = IC50 for GES-1 cell line/IC50 for HepG2 cell line,>2.95
same,IC50,"HepG2 cells [2]; Homo sapiens, HepG2, 48 h, MTT, 48 h treatment, average ± SD of three independent experiments",32.6 µM
same,IC50,HepG2 cells [2]; [9],33.9 ± 1.37 µM
same,IC50,HeLa cells; [9],55.1 ± 2.11 µM
"CO[C@@]12[C@H](COC(N)=O)C3=C(C(=O)C(C)=C(N)C3=O)N1C[C@@H]1N[C@@H]12 [Mitomycin C, reference compound]",IC50,"MCF-7 cells; MCF7, 48 h",16.7 ± 1.02 µM
same,SI,GES-1 cells,0.72
same,IC50,"GES-1 cells; GES1, 48 h",23.4 ± 1.11 µM
same,IC50,"HepG2 cells [2]; Homo sapiens, HepG2, 48 h",32.6 ± 1.22 µM
same,IC50,HeLa cells; 48 h,22 ± 1.12 µM
